In paper PMC8592624, “Rapid and improved oral absorption of N-butylphthalide by sodium cholate-appended liposomes for efficient ischemic stroke therapy” (Drug Delivery, 2021):

Assays:
[1] = Biodistribution in rats after oral administration; assay type: in vivo; details: p.o., 30 mg/kg, during 2 h
Protocol: Before the start of the experiment, rats were fasted while allowed to drink freely overnight. […] Rats were sacrificed 0.083, 0.25, 0.5, 1 and 2 h post-administration, and subsequently, the vital organs involving heart, liver, spleen, kidney, lung as well as brain were harvested and processed by following procedures. In brief, the harvest tissues were weighed and homogenized in cold saline. The obtained tissue lysates (100 μL) was methanol precipitated and centrifuged (4 °C, 15 min) followed by injection of the supernatant (50 μL) into HPLC. The NBP concentration in each tissue sample was calculated from the respective standard curves. […] Re= AUC0−t, tissue, formulation/AUC0−t, tissue, NBP suspension (Wang et al., [2014]) Ce=Cmax, tissue, formulation/Cmax, tissue, NBP suspension (Wang et al., [2021])

[2] = tested on: cerebral ischemia/reperfusion (I/R) model; test: Cerebral ischemia/reperfusion (I/R) model, middle cerebral artery occlusion (MCAO); assay type: in vivo; details: MCAO rats, 30 mg/kg p.o.
Protocol: Rats (280-320 g) were divided into five groups randomly (n = 10 per group): […] After lateral neck incision, the internal carotid artery, right common carotid artery […] and external carotid artery were exposed. A surgical nylon suture was gently advanced to occlude MCA until slight resistance was felt (18-20 mm from MCA bifurcation). 1.5 hours post MCAO, reperfusion was inducted by taking out the suture and the rats were immediately orally given the predetermined formulations. The sham operated group received the same surgery in the […] of the MCAO and drug treatment. The core body temperature was kept constant (37 ± 0.5 °C) for 24 h post reperfusion. Neurological deficit of rats was then assessed by the blinded Longa's method. […] The cerebral infarct area (White) was analyzed by Image-J and represented as a percentage of the total brain area. Histological alterations of brain samples from the remaining rats were analyzed via hematoxylin and esosin (H&E) staining and then observed under a microscope. The levels of malondialdehyde (MDA), superoxide dismutase (SOD) and glutathione peroxidase (GSH-Px) in brain lysates were determined 24 h after reperfusion according to the protocols of the specific agent kit (Servicebio, Wuhan, China).

[3] = In vitro drug release (dialysis method); assay type: physicochemical
Protocol: The release curves of the formulations were obtained using a dialysis method (Zhang et al., [2011]). […] The following procedures were performed as above.

Pharmacokinetics in rats = assay type: in vivo, Sprague-Dawley rats
Protocol: Male Sprague-Dawley rats (250 ± 20 g) were obtained from the laboratory animal center of Zhengzhou University (Zhengzhou, China). The animal experiments were conducted in accordance with the Regional Ethics Committee and protocols from the Institutional Animal Care and Use Committee of Zhengzhou University. Rats were fasted overnight with free access of water before the pharmacokinetic studies. To begin with, rats were randomly assigned into three groups. […] 0.5 mL of blood was taken from rats by retro-orbital sinus at 0.083, 0.25, 0.5, 1, 2, 3, 4, 6, 8, and 10 h after administration, respectively. The concentration of NBP in plasma was determined by HPLC after suitable processing. Briefly, 300 µL methanol was mixed with 100 µL of plasma and the resultant suspension was centrifuged (12,000 rpm, 10 min). The supernatant obtained was analyzed by a validated HPLC method (Supplementary Table 2). The pharmacokinetic parameters were obtained using DAS 3.0 software (Mathematical Pharmacology Professional Committee of China) and were presented as mean ± SD. The absolute bioavailability (Fa) and the relative bioavailability (Fr) were calculated by the following equations, respectively: (4) Fa (%)=AUC0−t, oralDosei.v/AUC0−t, i.vDoseoral (5) Fr (%)=AUC0−t, formulation/AUC0−t, NBP suspension
Where AUC0−t represents the area under the pharmacokinetic curve throughout the study.

[4] = i.v., NBP solution, 30 mg/kg, n = 5

In the case of `CCCCC1OC(=O)c2ccccc21` (stereo not drawn) [NBP, N-butylphthalide], the “organ of main accumulation” value [1] is reported as “mainly in the lung”, the “neurological score compared with I/R group” value ([2]; 24 h) is reported as “no significant difference” and the infarct volume ([2]; TTC staining, percentage of total brain area) is reported as 27.66 ± 2.59%. For the same compound, the “cumulative release during 12 h” value ([3]; SGF pH 1.2 2 h then phosphate buffer pH 6.8, 37 °C) was 6.79 ± 0.99%, the “cumulative drug release within 2 h” value ([3]; SGF pH 1.2, 37 °C, 100 rpm) was “about 6%” and the “24 h cumulative drug release amount” value ([3]; SGF pH 1.2 then phosphate buffer pH 6.8, 37 °C) was 6.79 ± 0.99%. The “Fa (absolute bioavailability)” value (Pharmacokinetics in rats; i.v., 30 mg/kg (reference)) was 100%, the AUC0-t (Pharmacokinetics in rats; [4]) was 7590 ± 780 ng·h/mL and the CLz (Pharmacokinetics in rats; [4]) was 44.2 ± 4.17 mL/min/kg. For the same compound, the Cmax (Pharmacokinetics in rats; [4]) was 25510 ± 3460 ng/mL, the tmax (Pharmacokinetics in rats; [4]) was 4.98 min and the “Fa (absolute bioavailability)” value (Pharmacokinetics in rats; p.o., 30 mg/kg) was 21.7%. The “Fr (relative bioavailability to NBP suspension)” value (Pharmacokinetics in rats; p.o., 30 mg/kg) was 100%, the “time at which Cmax was observed on plasma curve” value (Pharmacokinetics in rats; p.o., 30 mg/kg, Figure 3(B)) was 2 h and the AUC0-t (Pharmacokinetics in rats; p.o., 30 mg/kg, n = 5) was 1650 ± 320 ng·h/mL. The Cmax (Pharmacokinetics in rats; p.o., 30 mg/kg, n = 5) was 360 ± 130 ng/mL, the tmax (Pharmacokinetics in rats; p.o., 30 mg/kg, n = 5) was 61.2 ± 18.6 min and the CLz (Pharmacokinetics in rats; p.o., 30 mg/kg, n = 5, apparent clearance (CL/F)) was 201.8 ± 62.7 mL/min/kg.
